The target of experiment [1] is PI3Kγ (p110γ) Recombinant Human Protein (Homo sapiens (Human), UniProt P48736). Put plainly: PI3K-γ scintillation proximity assay. The experiment is classed as biochemical. The text has this:
Example B. PI3K-γ Scintillation Proximity Assay
[γ-^33P]ATP (10 mCi/mL) and Wheat Germ Agglutinin (WGA) YSi SPA Scintillation Beads was purchased from Perkin-Elmer (Waltham, Mass.). Lipid kinase substrate, D-myo-Phosphatidylinositol 4,5-bisphosphate (PtdIns(4,5)P2)D (+)-sn-1,2-di-O-octanoylglyceryl, 3-O-phospho linked (PIP2), CAS 204858-53-7, was purchased from Echelon Biosciences (Salt Lake City, Utah). PI3Kγ (p110γ) Recombinant Human Protein was purchased from Life technology (Grand Island, N.Y.). ATP, MgCl2, DTT, EDTA, MOPS and CHAPS were purchased from Sigma-Aldrich (St. Louis, Mo.).
(§1) The kinase reaction was conducted in polystyrene 384-well Greiner Bio-one white plate from Thermo Fisher Scientific in a final volume of 25 μL. Inhibitors were first diluted serially in DMSO and added to the plate wells before the addition of other reaction components. The final concentration of DMSO in the assay was 2%. The PI3Kγ assay was carried out at room temperature in 20 mM MOPS, pH 6.7, 10 mM MgCl2, 5 mM DTT and CHAPS 0.03%. Reactions were initiated by the addition of ATP, the final reaction mixture consisted of 20 μM PIP2, 2 μM ATP, 0.5 μCi [γ-^33P] ATP, 13 nM PI3Kγ. Reactions were incubated for 120 min and terminated by the addition of 40 μL SPA beads suspended in quench buffer: 163 mM potassium phosphate pH 7.8, 20% glycerol, 25 mM EDTA. The final concentration of SPA beads is 1.0 mg/mL. After the plate sealing, plates were shaken overnight at room temperature and centrifuged at 1500 rpm for 10 min, the radioactivity of the product was determined by scintillation counting on Topcount (Perkin-Elmer). IC50 determination was performed by fitting the curve of percent of the solvent control activity versus the log of the inhibitor concentration using the GraphPad Prism 6.0 software.

The target in experiment [2] is PI3Kδ (p110δ/p85α) Recombinant Human Protein (Homo sapiens (Human), UniProt O00329). Put plainly: PI3Kδ scintillation proximity assay. The following applies: read-out: P13Kδ IC50. The format is biochemical. On the procedure: PI3Kδ Scintillation Proximity Assay
Sequence of PI3Kδ (p110δ/p85α) Recombinant Human Protein (O00329 whole entry): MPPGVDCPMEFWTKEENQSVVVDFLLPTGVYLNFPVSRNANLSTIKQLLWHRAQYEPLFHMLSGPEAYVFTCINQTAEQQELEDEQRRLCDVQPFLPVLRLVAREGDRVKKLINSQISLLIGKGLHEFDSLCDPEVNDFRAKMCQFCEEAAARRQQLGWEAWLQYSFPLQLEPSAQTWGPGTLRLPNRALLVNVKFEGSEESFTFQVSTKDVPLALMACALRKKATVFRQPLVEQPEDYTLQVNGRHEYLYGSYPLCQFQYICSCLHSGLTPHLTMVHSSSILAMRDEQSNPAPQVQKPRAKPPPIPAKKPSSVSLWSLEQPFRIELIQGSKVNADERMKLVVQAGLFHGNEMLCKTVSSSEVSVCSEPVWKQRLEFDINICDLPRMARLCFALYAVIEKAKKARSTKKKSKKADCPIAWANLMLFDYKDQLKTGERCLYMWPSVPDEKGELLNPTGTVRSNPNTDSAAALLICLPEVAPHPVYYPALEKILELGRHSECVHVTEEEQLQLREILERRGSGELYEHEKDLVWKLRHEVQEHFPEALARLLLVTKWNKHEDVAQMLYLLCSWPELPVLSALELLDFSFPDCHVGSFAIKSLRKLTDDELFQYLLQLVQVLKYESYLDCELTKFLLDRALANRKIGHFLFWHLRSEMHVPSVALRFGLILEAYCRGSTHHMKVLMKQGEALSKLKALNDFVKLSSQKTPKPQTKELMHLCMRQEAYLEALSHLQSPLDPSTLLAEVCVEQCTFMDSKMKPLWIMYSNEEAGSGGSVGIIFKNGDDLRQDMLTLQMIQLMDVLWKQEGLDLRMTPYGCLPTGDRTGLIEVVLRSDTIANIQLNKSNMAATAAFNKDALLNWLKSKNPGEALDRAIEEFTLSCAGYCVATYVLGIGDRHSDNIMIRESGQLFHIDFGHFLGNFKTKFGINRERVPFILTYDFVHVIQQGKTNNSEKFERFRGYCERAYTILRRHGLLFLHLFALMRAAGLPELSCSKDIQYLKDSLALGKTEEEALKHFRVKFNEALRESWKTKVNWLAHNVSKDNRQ
Sequence of PI3Kδ (p110δ/p85α) Recombinant Human Protein (P27986 whole entry partner): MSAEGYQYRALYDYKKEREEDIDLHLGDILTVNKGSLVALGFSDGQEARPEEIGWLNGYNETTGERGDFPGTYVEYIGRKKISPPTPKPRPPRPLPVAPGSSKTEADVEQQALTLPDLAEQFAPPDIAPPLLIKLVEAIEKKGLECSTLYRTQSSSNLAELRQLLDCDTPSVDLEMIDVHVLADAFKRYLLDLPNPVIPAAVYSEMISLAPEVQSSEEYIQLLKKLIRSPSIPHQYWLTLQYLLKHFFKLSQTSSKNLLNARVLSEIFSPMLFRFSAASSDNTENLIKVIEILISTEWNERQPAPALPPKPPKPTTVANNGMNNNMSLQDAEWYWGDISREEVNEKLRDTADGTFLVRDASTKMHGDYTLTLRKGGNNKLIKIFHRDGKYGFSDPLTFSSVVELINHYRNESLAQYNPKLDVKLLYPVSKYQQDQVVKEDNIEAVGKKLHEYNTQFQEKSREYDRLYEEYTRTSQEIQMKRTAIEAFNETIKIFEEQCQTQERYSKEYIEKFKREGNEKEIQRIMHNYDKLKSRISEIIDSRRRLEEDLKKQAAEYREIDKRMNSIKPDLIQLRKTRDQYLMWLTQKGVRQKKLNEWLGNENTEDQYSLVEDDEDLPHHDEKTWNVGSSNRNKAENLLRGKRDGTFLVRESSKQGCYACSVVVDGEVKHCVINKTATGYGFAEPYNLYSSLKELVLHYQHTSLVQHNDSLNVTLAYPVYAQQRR
[γ-^33P]ATP (10 mCi/mL) and Wheat Germ Agglutinin (WGA) YSi SPA Scintillation Beads was purchased from Perkin-Elmer (Waltham, Mass.). […] PI3Kδ (p110δ/p85α) Recombinant Human Protein was purchased from Eurofins (St Charles, Mo.). ATP, MgCl2, DTT, EDTA, MOPS and CHAPS were purchased from SigmaAldrich (St. Louis, Mo.).
as §1, with “PI3Kδ” for “PI3Kγ”, “ATP, 13 nM PI3Kγ. Reactions were incubated for 120 min and terminated by the addition of 40 μL SPA beads suspended in quench buffer: 163 mM potassium phosphate pH 7.8, 20% glycerol, 25 mM EDTA.” left out, “(PerkinElmer).” for “(Perkin-Elmer).”

Experiment [3] deals with Phosphorylated Ribosomal Protein S6 (RPS6) in THP-1 cells. Put plainly: THP-1 RPS6 ELISA assay. The experiment is classed as cell-based. The settings on record: Homo sapiens, THP-1, THP-1 cells, 10 nM MCP-1 stimulation, phospho-RPS6 ELISA; read-out: PI3Kγ_THP1_RPS6_ELISA IC50. On the procedure: Example A. THP-1 RPS6 ELISA Assay
To measure the Phosphorylated Ribosomal Protein S6 (RPS6) in cell lysates, THP-1 cells (Human Acute Monocytic Leukemia) are purchased from ATCC (Manassas, Va.) and maintained in RPMI with 10% FBS (Gibco/Life Technologies, Carlsbad, Calif.). For the assay, THP-1 cells are serum starved overnight in RPMI, then plated in RPMI (2×10^5 cells/well in 90 μL) into 96-well flat-bottom tissue culture treated plates (Corning, Corning, N.Y.), in the presence or absence of a concentration range of test compounds. Covered plates are incubated for 2 hours at 37° C., 5% CO2 then treated with or without 10 nM MCP-1(MYBioSource, San Diego, Calif.) for 15 minutes at 37° C., 5% CO2. Plates are centrifuged at 1600 RPM and supernatants are removed. Cells are lysed in Lysis Buffer (Cell Signaling, Danvers, Mass.) with Protease Inhibitor (Calbiochem/EMD, Germany), PMSF (Sigma, St Louis Mo.), HALTS (Thermo Fisher, Rockford, Ill.) for 30 min on wet ice. Cell lysates are frozen at −80° C. before testing. The lysates are tested in the Human/Mouse/Rat Phospho-RPS6 ELISA (R&D Systems, Inc. Minn, Minn.). The plate is measured using a microplate reader (SpectraMax M5—Molecular Devices, LLC Sunnyvale, Calif.) set to 450 nm with a wavelength correction of 540. […]

Where [4] appears, read: 20 μM PIP2, 2 μM ATP, 13 nM PI3Kγ.
[5] abbreviates: 20 μM PIP2, 2 μM ATP, 3.4 nM PI3Kδ.

Counter-ions that a name gives are not always drawn. Like-named read-outs stand apart in the source and are kept apart here.

One may read the IC50 as the midpoint of a concentration-inhibition curve.

Sequence of PI3Kγ (p110γ) Recombinant Human Protein (P48736 whole entry): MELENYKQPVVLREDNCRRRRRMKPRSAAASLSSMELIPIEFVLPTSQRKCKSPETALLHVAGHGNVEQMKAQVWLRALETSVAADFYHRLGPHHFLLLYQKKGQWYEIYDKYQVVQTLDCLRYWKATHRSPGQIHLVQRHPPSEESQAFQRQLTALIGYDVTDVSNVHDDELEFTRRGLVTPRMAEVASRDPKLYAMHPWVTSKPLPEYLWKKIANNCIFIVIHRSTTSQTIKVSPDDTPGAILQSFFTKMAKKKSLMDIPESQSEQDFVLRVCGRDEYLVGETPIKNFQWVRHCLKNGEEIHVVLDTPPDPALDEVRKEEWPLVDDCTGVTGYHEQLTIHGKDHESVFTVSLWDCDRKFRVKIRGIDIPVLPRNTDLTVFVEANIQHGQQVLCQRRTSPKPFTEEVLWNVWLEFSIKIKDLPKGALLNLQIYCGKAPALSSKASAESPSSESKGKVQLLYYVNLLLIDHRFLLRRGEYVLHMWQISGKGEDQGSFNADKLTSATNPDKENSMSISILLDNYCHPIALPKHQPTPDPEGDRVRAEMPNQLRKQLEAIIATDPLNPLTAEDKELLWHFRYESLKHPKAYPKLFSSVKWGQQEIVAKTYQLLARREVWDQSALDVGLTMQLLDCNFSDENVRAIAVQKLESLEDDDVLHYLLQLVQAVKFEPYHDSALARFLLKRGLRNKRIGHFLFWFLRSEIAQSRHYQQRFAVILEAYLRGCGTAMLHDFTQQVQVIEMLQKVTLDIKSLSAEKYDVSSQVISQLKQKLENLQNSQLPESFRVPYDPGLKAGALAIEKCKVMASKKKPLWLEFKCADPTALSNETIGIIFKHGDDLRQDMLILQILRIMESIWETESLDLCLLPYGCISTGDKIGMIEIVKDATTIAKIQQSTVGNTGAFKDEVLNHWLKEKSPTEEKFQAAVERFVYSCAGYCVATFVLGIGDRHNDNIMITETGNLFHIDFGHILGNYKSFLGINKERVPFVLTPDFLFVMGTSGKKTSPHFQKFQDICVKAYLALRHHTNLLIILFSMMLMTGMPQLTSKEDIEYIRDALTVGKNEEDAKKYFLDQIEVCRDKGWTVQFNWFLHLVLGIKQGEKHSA

Consider `Cc1ncc(-c2cn3c(-c4cc(C(O)(CO)C(F)(F)F)ccc4C)cnc3c(N)n2)o1` (single isomer, unassigned) [Example 68, 2-(3-(8-Amino-6-(2-methyloxazol-5-yl)imidazo[1,2-o]pyrazin-3-yl)-4-methylphenyl)-3,3,3-trifluoropropane-1,2-diol], for which the IC50 in experiment [1] (setting [4]) and in experiment [2] (setting [5]) was less than 100 nM in each case.
For the compound `Cc1ccc(C(O)(C(N)=O)C(F)(F)F)cc1-c1cnc2c(N)nc(C(C)(C)O)cn12` (single isomer, unassigned) [Example 255, 2-(3-(8-Amino-6-(2-hydroxypropan-2-yl)imidazo[1,2-a]pyrazin-3-yl)-4-methylphenyl)-3,3,3-trifluoro-2-hydroxypropanamide trifluoroacetate salt (single enantiomer)], the half-inhibitory concentration (IC50) in experiment [1] (setting [4]) and in experiment [2] (setting [5]) was less than 100 nM each time.
Regarding `Cc1ccc(C(O)(C(N)=O)C(F)(F)F)cc1-c1cnc2c(N)nc(C(=O)NC34CCC(O)(CC3)C4)cn12` (single isomer, unassigned) [Example 260, 8-Amino-3-(5-(3-amino-1,1,1-trifluoro-2-hydroxy-3-oxopropan-2-yl)-2-methylphenyl)-N-(4-hydroxybicyclo[2.2.1]heptan-1-yl)imidazo[1,2-a]pyrazine-6-carboxamide trifluoroacetate salt (single enantiomer)], the values for the IC50 in experiment [1] (setting [4]) and in experiment [2] (setting [5]) were less than 100 nM and 100 to 500 nM, respectively.
On to `Cc1ccc(C(C)(O)C(F)F)cc1-c1cnc2c(N)nc(-c3c[nH]nc3C)cn12` (stereo not drawn) [Example 47, 2-(3-(8-Amino-6-(3-methyl-1H-pyrazol-4-yl)imidazo[1,2-a]pyrazin-3-yl)-4-methylphenyl)-1,1-difluoropropan-2-ol, 1.2TFA], for which the IC50 in experiment [3], in experiment [1] (setting [4]) and in experiment [2] (setting [5]) was less than 100 nM each time.
Regarding `Cc1ccc(C(O)(CO)C(F)(F)F)cc1-c1cnc2c(N)nc(-c3cnn(C)c3)cn12` (stereo not drawn) [Example 69, 2-(3-(8-Amino-6-(1-methyl-1H-pyrazol-4-yl)imidazo[1,2-a]pyrazin-3-yl)-4-methylphenyl)-3,3,3-trifluoropropane-1,2-diol trifluoroacetate salt], the IC50 in experiment [1] and in experiment [2] was less than 100 nM in each case.
As for `Cc1ncc(-c2cn3c(-c4cc(C(O)(CO)C(F)(F)F)ccc4C)cnc3c(N)n2)s1` (stereo not drawn) [Example 70, 2-(3-(8-Amino-6-(2-methylthiazol-5-yl)imidazo[1,2-a]pyrazin-3-yl)-4-methylphenyl)-3,3,3-trifluoropropane-1,2-diol trifluoroacetate salt], the IC50 in experiment [1] and in experiment [2] was less than 100 nM throughout.
On to `Cc1ccc(C(O)(CO)C(F)(F)F)cc1-c1cnc2c(N)nc(-c3cnco3)cn12` (stereo not drawn) [Example 71, 2-(3-(8-Amino-6-(oxazol-5-yl)imidazo[1,2-a]pyrazin-3-yl)-4-methylphenyl)-3,3,3-trifluoropropane-1,2-diol trifluoroacetate salt], for which the concentration for half-maximal inhibition (IC50) in experiment [1] and in experiment [2] was less than 100 nM in each case.

Values taken from patent US11225486B2, “Tertiary alcohols as PI3K-γ inhibitors” (Incyte Corporation, priority 2017, dated 2022).
